From PubChem BioAssay (NCI)
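GI50 marks 50% less growth. TGI: concentration producing complete growth inhibition.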

Columns and labels:
Assay in all cases: NCI anticancer screen, dose series, 384-well format
786-0 renal = tested on: 786-0 renal
COLO 205 colon = tested on: COLO 205 colon
HOP-92 NSCLC = tested on: HOP-92 NSCLC
HS 578T breast = tested on: HS 578T breast
HT29 colon = tested on: HT29 colon
NCI-H226 lung = tested on: NCI-H226 lung
NCI-H322M lung = tested on: NCI-H322M lung
OVCAR-4 ovarian = tested on: OVCAR-4 ovarian
SK-MEL-2 melanoma = tested on: SK-MEL-2 melanoma
SK-MEL-28 melanoma = tested on: SK-MEL-28 melanoma
SK-OV-3 ovarian = tested on: SK-OV-3 ovarian
SN12C renal = tested on: SN12C renal
SNB-19 CNS = tested on: SNB-19 CNS

In the case of `Cc1ccc(S(=O)(=O)Cc2nc(-c3ccc(C(=O)NCc4cccnc4)cc3)oc2C)cc1`, the GI50 (786-0 renal) is reported as < 10 nM, the TGI (786-0 renal) is reported as 16.1 nM and the GI50 (COLO 205 colon) is reported as < 10 nM. The TGI (COLO 205 colon) was < 10 nM, the GI50 (HOP-92 NSCLC) was 22 nM and the TGI (HOP-92 NSCLC) was 52.6 nM. For the same compound, the GI50 (HS 578T breast) was < 10 nM, the TGI (HS 578T breast) was < 10 nM and the GI50 (HT29 colon) was 18.9 nM. The TGI (HT29 colon) was 37.9 nM, the GI50 (NCI-H226 lung) was 119 nM and the TGI (NCI-H226 lung) was 602 nM. For the same compound, the GI50 (NCI-H322M lung) was < 10 nM, the TGI (NCI-H322M lung) was < 10 nM and the GI50 (OVCAR-4 ovarian) was 19.3 nM. The TGI (OVCAR-4 ovarian) was 39.6 nM, the GI50 (SK-MEL-2 melanoma) was < 10 nM and the TGI (SK-MEL-2 melanoma) was < 10 nM. The GI50 (SK-MEL-28 melanoma) was 17.2 nM, the TGI (SK-MEL-28 melanoma) was 34.3 nM and the GI50 (SK-OV-3 ovarian) was < 10 nM. The TGI (SK-OV-3 ovarian) was < 10 nM, the GI50 (SN12C renal) was < 10 nM and the TGI (SN12C renal) was < 10 nM. The GI50 (SNB-19 CNS) was < 10 nM and the TGI (SNB-19 CNS) was < 10 nM.
